Legend:
[1] = test system: TG1019 (5-oxo-ETE receptor); assay: Intracellular calcium level in CHO cells stably expressing TG1019; format: cell-based, human; conditions: FuraII 340/380 nm ratio
Procedure: (1) Preparation of cells stably expressing TG1019 Cells stably expressing TG1019 (the receptor protein of the present invention) and cells not expressing TG1019 were prepared by introducing to CHO cells the TG1019 protein expression vector prepared in Example 5 and the control vector, as described below.
The cells stably expressing TG1019 prepared in the above section (1) was incubated in DMEM/F12 medium supplemented with 10% fetal bovine serum at 37° C. in a CO2 incubator. To the cells which were 80 to 90% confluent, was added a cell dissociation buffer (Cell Dissociation Buffer Enzyme-free PBS-based, available from Invitrogen), and cells were dissociated by incubating at 37° C. for 5 minutes. […]
The cells after loading were centrifuged once with an assay buffer, to remove supernatant, and then, they were suspended in an assay buffer to have a concentration of 3.7 to 6.3×10^6 cells/ml. This cell suspension was portioned into a 96 well plate by 80 μl/well, and the plate was set in a fluorescence measuring device (FDSS6000, [Hamamatsu Photonics]), and the reaction was started by adding a solution containing 5-oxo-ETE or 5-HETE in a 5 fold concentration dissolved in an assay buffer, by 20 μl/well. The measurement was done by measuring fluorescence intensity at 510 nm, with excitation wavelength of 340 nm and 380 nm.

[2] = test system: eosinophils; assay: Migration test of eosinophils; format: cell-based; conditions: purified human eosinophils; 1.5 hours
Procedure: Blood was collected (50 ml) from healthy male adult volunteers, and from the collected peripheral blood, eosinophils were purified as follows.
After washing the eosinophils and neutrophils purified in the above sections, the cells were suspended in RPMI1640 supplemented with 0.1% BSA (not containing phenol red) which contains 3 μM Calcein-AM (Dojindo laboratories, fluorescence reagent), so that the cell count became 1×10^6 cells/ml. The suspension was incubated at 37° C. for 30 minutes. The cells were washed twice with the same culture medium, and suspended in the same medium so that the cell count became 1×10^6 cells/ml.
Using these cells, cell migration test was carried out using 2 chambers for migration test (Transwell; 3 μm pore, 24 well, 3422 [Costar]). […]
After the reaction, the chambers were removed, and to the lower chamber was added 66 μl of 10× lysis buffer (5% Triton X-100 dissolved in PBS, 10% ethanol). […] 200 μl of the cell lysate was transferred to 96 well black plate (237105, Nunc), and fluorescence intensities were measured using a fluorometer (ARVO™ SX, Wallac) with an excitation wavelength of 485 nm and a fluorescence wavelength of 535 nm.

[3] = test system: TG1019 protein; assay: Forskolin-stimulated cAMP production in CHO cells transiently expressing TG1019; format: cell-based, human
Text: A TG1019 protein expression vector was transiently introduced to CHO cells to have a recombinant TG1019 protein expressed, and using these cells, a function of TG1019 protein as an eicosanoid receptor was confirmed.
At first, a DNA encoding an entire region of TG1019 protein obtained in Example 1 (1) mentioned above was subcloned in NotI recognition site of a vector plasmid pcDNA3.1 (an expression vector, available from Invitrogen), to obtain TG1019 protein expression vector plasmid pcDNA3.1-TG1019.
CHO cells (1×10^6 cells) were cultured in DMEM/F-12 culture medium supplemented with 10% fetal bovine serum at 37° C. for 20 hours. Using these cells, transfection was carried out by adding plasmid DNA (pcDNA3.1-TG1019, or as a control, vector pcDNA3.1) (5 μg) and transfection reagent (LipofectAMINE, available from Invitrogen), and the mixture was cultured for 24 hours. In case of using pretreatment with pertussis toxin, pertussis toxin (100 ng) was added after 20 hours of culture and the mixture was successively cultured for 4 hours.
The cells after culture were collected, washed, and suspended in a KRH buffer (Krebs-Ringer Hepes buffer, pH 7.4) containing rolipram (25 mM). The suspension was incubated at 37° C. for 30 minutes and inoculated in a 96 well plate (5-7.5×10^4 cells/90 μl/well).
Subsequently, KRH buffer (90 μl/well) containing forskolin (1 μM) and 5-oxo-ETE (the final concentration 0M or 10^−11 to 10^−5 M) was added thereto, and after the mixture was incubated at room temperature for 10 minutes, the cells were lysed to measure a cAMP production amount.
The cAMP production amount was measured using cAMP enzyme immunoassay system available from Amersham Biosciences.

CCCCC/C=C\C/C=C\C/C=C\C=C\C(=O)CCCC(=O)O [5-oxo-ETE, 5-oxo-6E,8Z,11Z,14Z-eicosatetraenoic acid]
change in intracellular calcium level [1]: increase in intracellular calcium level | migration of eosinophils [2]: has an ability to make these cells migrate | cAMP production amount upon forskolin stimulation ([3]; CHO cells with pcDNA3.1-TG1019 introduced, forskolin 1 μM, concentration-dependent): inhibited | cAMP production ([3]; TG1019-expressing CHO cells pretreated with pertussis toxin): not inhibited | cAMP production amount upon forskolin stimulation ([3]; control CHO cells with only vector introduced): not changed
